Assay results as given in US20240116946A1 (Gilead Sciences, Inc., priority 2022, published 2024).
Like-named read-outs stand apart in the source and are kept apart here.

Columns and labels:
[1] = target: recombinant SARS-CoV-2 Main protease (Mpro) (Severe acute respiratory syndrome coronavirus 2 (2019-nCoV) (SARS-CoV-2), UniProt P0DTD1); assay: Cov Mpro Biochemical IC50 Assay; details: read-out: MPro IC50
SARS-CoV-2-NLuc = assay: microbe, parasite or virus in culture; format: cell-based, SARS Coronavirus 2
[2] = recombinant SARS-CoV-2 Mpro 7.5 nM, fluorogenic peptide substrate 40 μM
[3] = Severe acute respiratory syndrome coronavirus, 48 h, read-out: MPro EC50
[4] = Severe acute respiratory syndrome coronavirus, 48 h; read-out: MPro EC50
[5] = recombinant SARS-CoV-2 Mpro, fluorogenic peptide substrate

Compound `Cc1c(Cl)cncc1-n1c(=O)c2sc(-c3ccc(F)cc3Cl)cc2n(CCC#N)c1=O` [Example 807] has an IC50 [1, 2] of 20.6 nM and an EC50 (SARS-CoV-2-NLuc; [3]) of 35 nM.
With `COc1cc(-c2cc3[nH]c(=O)n(-c4cncc5nc(C)sc45)c(=O)c3s2)c(Cl)cc1F` [Example 652] the IC50 [1, 2] was 22.5 nM and the EC50 (SARS-CoV-2-NLuc; [3]) was 48.1 nM.
With `COc1cc(-c2cc3c(s2)c(=O)n(-c2cncc4ncn(C)c24)c(=O)n3CCC#N)c(Cl)cc1F` [Example 843] the IC50 [1, 2] was 5.43 nM and the EC50 (SARS-CoV-2-NLuc; [3]) was 13.2 nM.
`Cc1c(Cl)cncc1-n1c(=O)c2sc(-c3ccc(F)cc3C#N)cc2n(CCC#N)c1=O` [Example 808] gave an IC50 [1, 2] of 74.5 nM and an EC50 (SARS-CoV-2-NLuc; [4]) of 183 nM.
`Cc1cnc(Cl)c(-c2cc3c(s2)c(=O)n(-c2cncc4cnn(C)c24)c(=O)n3CCC#N)c1` [Example 1020] showed an IC50 [1, 2] of 107 nM and an EC50 (SARS-CoV-2-NLuc; [3]) of 398 nM.
`Cn1cc(-c2cccc(Cl)c2-c2cc3[nH]c(=O)n(-c4cncc5ccccc45)c(=O)c3s2)c(C(F)(F)F)n1` [Example 280, 6-(2-chloro-6-(1-methyl-3-(trifluoromethyl)-1H-pyrazol-4-yl)phenyl)-3-(isoquinolin-4-yl)thieno[3,2-d]pyrimidine-2,4(1H,3H)-dione] showed an IC50 [1, 5] of 5.97 nM and an EC50 (SARS-CoV-2-NLuc; [3]) of 15.9 nM.
With `O=c1[nH]c2cc(-c3c(Cl)cccc3C3=CCOCC3)sc2c(=O)n1-c1cncc2ccccc12` [Example 522] the IC50 [1, 2] was 9.84 nM and the EC50 (SARS-CoV-2-NLuc; [3]) was 5.1 nM.
`COc1cc(-c2cc3[nH]c(=O)n(-c4cncc5ccc(C)nc45)c(=O)c3s2)c(Cl)cc1F` [Example 461, 6-(2-chloro-4-fluoro-5-methoxyphenyl)-3-(2-methyl-1,6-naphthyridin-8-yl)thieno[3,2-d]pyrimidine-2,4(1H,3H)-dione] gave an IC50 [1, 2] of 8.07 nM and an EC50 (SARS-CoV-2-NLuc; [4]) of 10 nM.
`Cc1c2c(-n3c(=O)c4sc(-c5ccccc5C#N)cc4n(CCC#N)c3=O)cncc2nn1C` [Example 896] was tested, and the IC50 [1, 2] was 59.2 nM and the EC50 (SARS-CoV-2-NLuc; [4]) was 479 nM.
In the case of `NC(=O)c1cccc(-c2cccc(Cl)c2-c2ccc3c(=O)n(-c4cncc5ccccc45)c(=O)[nH]c3c2)c1` [Example 242], the IC50 [1, 5] is reported as 10.4 nM and the EC50 (SARS-CoV-2-NLuc; [3]) is reported as 40.1 nM.
Compound `O=c1[nH]c2cc(-c3ccccc3Cl)sc2c(=O)n1-c1cncc2ccc(N3CC(O)(C(F)(F)F)C3)cc12` [Example 426] has an IC50 [1, 2] of 21.3 nM and an EC50 (SARS-CoV-2-NLuc; [3]) of 40.9 nM.
Compound `COc1cc(-c2cc3c(s2)c(=O)n(-c2cncc4cnn(C5CC5)c24)c(=O)n3CCC#N)c(Cl)cc1F` [Example 998] has an IC50 [1, 2] of 8.93 nM and an EC50 (SARS-CoV-2-NLuc; [3]) of 6.42 nM.
`COc1cc(-c2cc3c(s2)c(=O)n(-c2cncc4cccc(F)c24)c(=O)n3CCC#N)c(Cl)cc1F` [Example 901, 3-(6-(2-chloro-4-fluoro-5-methoxyphenyl)-3-(5-fluoroisoquinolin-4-yl)-2,4-dioxo-3,4-dihydrothieno[3,2-d]pyrimidin-1(2H)-yl)propanenitrile] showed an IC50 [1, 2] of 2.53 nM and an EC50 (SARS-CoV-2-NLuc; [3]) of 5.16 nM.
`O=c1[nH]c2cc(-c3c(Cl)cccc3-c3ccnnc3)sc2c(=O)n1-c1cncc(C2CC2)c1` [Example 616] was tested, and the IC50 [1, 2] was 6.92 nM and the EC50 (SARS-CoV-2-NLuc; [3]) was 320 nM.
`COc1cc(-c2cc3[nH]c(=O)n(-c4cncc5ccccc45)c(=O)c3s2)c(Cl)cc1F` [Example 340, 6-(2-chloro-4-fluoro-5-methoxy-phenyl)-3-(4-isoquinolyl)-1H-thieno[3,2-d]pyrimidine-2,4-dione] was tested, and the IC50 [1, 5] was 5.23 nM and the EC50 (SARS-CoV-2-NLuc; [3]) was 5.39 nM.
With `O=c1[nH]c2cc(-c3ccccc3Cl)sc2c(=O)n1-c1cncc2ccc(N3CCn4c(nnc4C(F)(F)F)C3)cc12` [Example 337] the IC50 [1, 5] was less than 2.68 nM and the EC50 (SARS-CoV-2-NLuc; [3]) was 170 nM.
For `COCCOc1ccc(Cl)c(-c2ccc3c(=O)n(-c4cncc5ccccc45)c(=O)[nH]c3c2)c1` [Example 251], the IC50 [1, 5] was 68.2 nM and the EC50 (SARS-CoV-2-NLuc; [3]) was 150 nM.
Work on `O=c1[nH]c2cc(-c3ccccc3Cl)sc2c(=O)n1-c1cncc2cccnc12` [Example 133, 6-(2-chlorophenyl)-3-(1,6-naphthyridin-8-yl)thieno[3,2-d]pyrimidine-2,4(1H,3H)-dione] yielded an IC50 [1, 5] of 12.8 nM and an EC50 (SARS-CoV-2-NLuc; [3]) of 27.7 nM.
Work on `N#CCCn1c(=O)n(-c2cncc3ccc(C#N)cc23)c(=O)c2sc(-c3ccc(F)cc3Cl)cc21` [Example 1063] yielded an IC50 [1, 2] of 17.9 nM and an EC50 (SARS-CoV-2-NLuc; [3]) of 39.9 nM.
Work on `COc1cc(-c2cc3c(s2)c(=O)n(-c2cncc4cnn(C)c24)c(=O)n3CC2CCCN2C)c(Cl)cc1F` (centres unmarked) [Example 1071] yielded an IC50 [1, 2] of 102 nM and an EC50 (SARS-CoV-2-NLuc; [3]) of 306 nM.
Compound `Cn1nnc2cncc(-n3c(=O)c4sc(-c5cc(Cl)ccc5C#N)cc4n(CCC#N)c3=O)c21` [Example 886] has an IC50 [1, 2] of 36.1 nM and an EC50 (SARS-CoV-2-NLuc; [3]) of 144 nM.
`O=c1[nH]c2cc(-c3c(Cl)cccc3CO)ccc2c(=O)n1-c1cncc2ccccc12` [Example 99] showed an IC50 [1, 5] of 216 nM and an EC50 (SARS-CoV-2-NLuc; [3]) of 492 nM.
With `COc1cc(-c2cc3c(=O)n(-c4cncc5ccccc45)c(=O)n(CCC#N)c3s2)c(Cl)cc1F` [Example 867] the IC50 [1, 2] was 9.82 nM and the EC50 (SARS-CoV-2-NLuc; [3]) was 13.1 nM.
For `CN(C)c1cncc(-n2c(=O)[nH]c3cc(-c4ccccc4Cl)sc3c2=O)c1` [Example 380], the IC50 [1, 5] was 5950 nM and the EC50 (SARS-CoV-2-NLuc; [3]) was 770 nM.
In the case of `COc1cc(-c2cc3c(s2)c(=O)n(-c2cncc4ccc(Cl)cc24)c(=O)n3CCC#N)c(Cl)cc1F` [Example 946], the IC50 [1, 2] is reported as 6.82 nM and the EC50 (SARS-CoV-2-NLuc; [3]) is reported as 12.9 nM.
`COc1cc(-c2cc3c(s2)c(=O)n(-c2cncc(C#N)c2C)c(=O)n3CCC#N)c(Cl)cc1F` [Example 868] showed an IC50 [1, 2] of 9.86 nM and an EC50 (SARS-CoV-2-NLuc; [3]) of 26.1 nM.
`O=c1c2sc(-c3ncco3)cc2n(CC2CCCC2)c(=O)n1-c1cncc2ccccc12` [Example 170, 1-(cyclopentylmethyl)-3-(isoquinolin-4-yl)-6-(oxazol-2-yl)thieno[3,2-d]pyrimidine-2,4(1H,3H)-dione] was tested, and the IC50 [1, 5] was 192 nM and the EC50 (SARS-CoV-2-NLuc; [3]) was 421 nM.
For `CC(=O)NC1CCN(c2ccc3cncc(-n4c(=O)[nH]c5cc(-c6ccccc6Cl)sc5c4=O)c3c2)CC1` [Example 388], the IC50 [1, 5] was 18.7 nM and the EC50 (SARS-CoV-2-NLuc; [3]) was 212 nM.
Compound `Cc1cnc(Cl)c(-c2cc3[nH]c(=O)n(-c4cncc5cnn(C)c45)c(=O)c3s2)c1` [Example 669] has an IC50 [1, 2] of 336 nM and an EC50 (SARS-CoV-2-NLuc; [3]) greater than 1000 nM.
Work on `COc1ccc(C#N)c(-c2cc3[nH]c(=O)n(-c4cncc5ccccc45)c(=O)c3cc2OC)c1` [Example 312] yielded an IC50 [1, 5] of 14.3 nM and an EC50 (SARS-CoV-2-NLuc; [3]) of 20.4 nM.
Compound `COc1cc(-c2cc3c(s2)c(=O)n(-c2cncc4cccnc24)c(=O)n3CCC#N)c(Cl)cc1F` [Example 904, 3-(6-(2-chloro-4-fluoro-5-methoxyphenyl)-3-(1,6-naphthyridin-8-yl)-2,4-dioxo-3,4-dihydrothieno[3,2-d]pyrimidin-1(2H)-yl)propanenitrile] has an IC50 [1, 2] of 4.29 nM and an EC50 (SARS-CoV-2-NLuc; [3]) of 1.34 nM.
`Cn1ccc(-c2cccc(Cl)c2-c2ccc3c(=O)n(-c4cncc5ccccc45)c(=O)[nH]c3c2)n1` [Example 146] gave an IC50 [1, 5] of 99.7 nM and an EC50 (SARS-CoV-2-NLuc; [3]) of 60.6 nM.
Compound `O=c1[nH]c2cc(-c3c(Cl)cccc3-c3ccc4ncnn4c3)ccc2c(=O)n1-c1cncc2ccccc12` [Example 241] has an IC50 [1, 5] of 35 nM and an EC50 (SARS-CoV-2-NLuc; [3]) of 54 nM.
`O=c1[nH]c2cc(-c3ccccc3)c(F)cc2c(=O)n1-c1cncc2ccccc12` [Example 38] was tested, and the IC50 [1, 5] was greater than 100000 nM and the EC50 (SARS-CoV-2-NLuc; [4]) was 4910 nM.
For `Cn1nc(-c2cccc(Cl)c2-c2ccc3c(=O)n(-c4cncc5ccccc45)c(=O)[nH]c3c2)c2ccccc21` [Example 263], the IC50 [1, 5] was 88.5 nM and the EC50 (SARS-CoV-2-NLuc; [3]) was 38.1 nM.
`COc1cc(-c2cc3[nH]c(=O)n(-c4cncc5cnn(C)c45)c(=O)c3s2)c(C)cc1F` [Example 657] showed an IC50 [1, 2] of 14.4 nM and an EC50 (SARS-CoV-2-NLuc; [3]) of 27.4 nM.
`COc1cc(-c2cc3[nH]c(=O)n(-c4cncc5cnn(CC(F)F)c45)c(=O)c3s2)c(Cl)cc1F` [Example 730] was tested, and the IC50 [1, 2] was 10.1 nM and the EC50 (SARS-CoV-2-NLuc; [3]) was 28.9 nM.
